Laboratory results from patent US11866431B2, “Bicyclic compounds” (Vivace Therapeutics, Inc., priority 2018, dated 2024).

Test system: 8XTBD luciferase reporter (YAP reporter) in HEK293T cells
Experiment: YAP Reporter Assay
Format: cell-based
Details: Homo sapiens, HEK-293T; HEK293T cells stably transfected with 8XTBD luciferase reporter and pRLTK; 24-hr incubation; top concentration 3 μM; read-out: Firefly Luciferase IC50
Procedure, shortened: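 HEK293T cells stably carrying 8XTBD firefly luciferase and TK-renilla (3×10^3 cells/well) dosed 3-4 h after plating with compounds from 3 μM final, 1:3 dilution, 10 points, quadruplicates. After 24 h at 37° C, Dual-Glo readings gave IC50 and maximum inhibition reported separately for firefly and renilla.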

SMILES | IC50 [nM]
C[C@@H](NC(=O)c1cnc2c(-c3ccc(C(F)(F)F)cc3)cccc2c1)C1CNC1 [Compound 158, N-[(1R)-1-(Azetidin-3-yl)ethyl]-8-[4-(trifluoromethyl)phenyl]quinoline-3-carboxamide] | 100 to 1000
O=C(NC(CCO)CCO)c1cnc2c(-c3ccc(C(F)(F)F)cc3)cccc2c1 [Compound 160, N-(1,5-dihydroxypentan-3-yl)-8-(4-(trifluoromethyl)phenyl)quinoline-3-carboxamide] | 1000 to 3000
O=C(NC(CCO)CCO)c1ccc2c(-c3ccc(C(F)(F)F)cc3)cccc2c1 [Compound 161, N-(1,5-dihydroxypentan-3-yl)-5-(4-(trifluoromethyl)phenyl)-2-naphthamide] | 100 to 1000
O=C(N[C@H](CO)c1ccccn1)c1ccc2c(-c3ccc(C(F)(F)F)cc3)cccc2c1 [Compound 162, N-[(1S)-2-hydroxy-1-(2-pyridyl)ethyl]-5-[4-(trifluoromethyl)phenyl]naphthalene-2-carboxamide] | 1000 to 3000
O=C(N[C@@H](CO)c1ccccn1)c1ccc2c(-c3ccc(C(F)(F)F)cc3)cccc2c1 [Compound 163, N-[(1R)-2-hydroxy-1-(2-pyridyl)ethyl]-5-[4-(trifluoromethyl)phenyl]naphthalene-2-carboxamide] | < 100
O=C(N[C@@H](CCO)c1ccccn1)c1ccc2c(-c3ccc(C(F)(F)F)cc3)cccc2c1 [Compound 164, (S)—N-(3-hydroxy-1-(pyridin-2-yl)propyl)-5-(4-(trifluoromethyl)phenyl)-2-naphthamide] | < 100
O=C(N[C@H](CCO)c1ccccn1)c1ccc2c(-c3ccc(C(F)(F)F)cc3)cccc2c1 [Compound 165, (R)—N-(3-hydroxy-1-(pyridin-2-yl)propyl)-5-(4-(trifluoromethyl)phenyl)-2-naphthamide] | 1000 to 3000
C[C@@H](CCO)NC(=O)c1ccc2c(-c3ccc(C(F)(F)F)cc3)cccc2c1 [Compound 166, N-[(1S)-3-hydroxy-1-methyl-propyl]-5-[4-(trifluoromethyl)phenyl]naphthalene-2-carboxamide] | < 100
C[C@H](CCO)NC(=O)c1ccc2c(-c3ccc(C(F)(F)F)cc3)cccc2c1 [Compound 167, N-[(1R)-3-hydroxy-1-methyl-propyl]-5-[4-(trifluoromethyl)phenyl]naphthalene-2-carboxamide] | < 100
C[C@@H](CCN)NC(=O)c1ccc2c(-c3ccc(C(F)(F)F)cc3)cccc2c1 [Compound 168, (S)—N-(4-aminobutan-2-yl)-5-(4-(trifluoromethyl)phenyl)-2-naphthamide] | < 100
C[C@H](CCN)NC(=O)c1ccc2c(-c3ccc(C(F)(F)F)cc3)cccc2c1 [Compound 169, (R)—N-(4-aminobutan-2-yl)-5-(4-(trifluoromethyl)phenyl)-2-naphthamide] | 100 to 1000
O=C(NCc1ccnc(CF)n1)c1ccc2c(-c3ccc(C(F)(F)F)cc3)cccc2c1 [Compound 170, N-((2-(fluoromethyl)pyrimidin-4-yl)methyl)-5-(4-(trifluoromethyl)phenyl)-2-naphthamide] | < 100
O=C(NCc1ccnc(COc2ccon2)n1)c1ccc2c(-c3ccc(C(F)(F)F)cc3)cccc2c1 [Compound 171, N-((2-((Isoxazol-3-yloxy)methyl)pyrimidin-4-yl)methyl)-5-(4-(trifluoromethyl)phenyl)-2-naphthamide] | 100 to 1000
O=C(NCc1ccnc(COc2c(F)cccc2F)n1)c1ccc2c(-c3ccc(C(F)(F)F)cc3)cccc2c1 [Compound 172, N-((2-((2,6-difluorophenoxy)methyl)pyrimidin-4-yl)methyl)-5-(4-(trifluoromethyl)phenyl)-2-naphthamide] | 1000 to 3000
C[C@@H](NC(=O)c1ccc2c(-c3ccc(C(F)(F)F)cc3)cccc2c1)c1cccc2nc[nH]c12 [Compound 173, N-[(1R)-1-(3H-benzimidazol-4-yl)ethyl]-5-[4-(trifluoromethyl)phenyl]naphthalene-2-carboxamide] | 100 to 1000
C[C@H](NC(=O)c1ccc2c(-c3ccc(C(F)(F)F)cc3)cccc2c1)c1cccc2nc[nH]c12 [Compound 174, N-[(1S)-1-(3H-benzimidazol-4-yl)ethyl]-5-[4-(trifluoromethyl)phenyl]naphthalene-2-carboxamide] | < 100
C[C@@H](NC(=O)c1ccc2c(-c3ccc(C(F)(F)F)cc3)cccc2c1)c1cccc2ccsc12 [Compound 176, N-[(1R)-1-(benzothiophen-7-yl)ethyl]-5-[4-(trifluoromethyl)phenyl]naphthalene-2-carboxamide] | 100 to 1000
C[C@@H](NC(=O)c1ccc2c(-c3ccc(C(F)(F)F)cc3)cccc2c1)c1cccc2ccc(=O)[nH]c12 [Compound 177, N-[(1R)-1-(2-oxo-1H-quinolin-8-yl)ethyl]-5-[4-(trifluoromethyl)phenyl]naphthalene-2-carboxamide] | < 100
C[C@H](NC(=O)c1ccc2c(-c3ccc(C(F)(F)F)cc3)cccc2c1)c1cccc2ccc(=O)[nH]c12 [Compound 178, N-[(1S)-1-(2-oxo-1H-quinolin-8-yl)ethyl]-5-[4-(trifluoromethyl)phenyl]naphthalene-2-carboxamide] | 1000 to 3000

SMILES | IC50 [nM]
N#Cc1nccc(CNC(=O)c2ccc3c(-c4ccc(C(F)(F)F)cc4)cccc3c2)n1 [Compound 179, N-((2-cyanopyrimidin-4-yl)methyl)-5-(4-(trifluoromethyl)phenyl)-2-naphthamide] | < 100
O=C(NCc1ccnc(Cl)n1)c1ccc2c(-c3ccc(C(F)(F)F)cc3)cccc2c1 [Compound 180, N-((2-chloropyrimidin-4-yl)methyl)-5-(4-(trifluoromethyl)phenyl)-2-naphthamide] | 100 to 1000
O=C(NCC/C=C/COc1ccon1)c1ccc2c(-c3ccc(C(F)(F)F)cc3)cccc2c1 [Compound 181, N-[(E)-5-isoxazol-3-yloxypent-3-enyl]-5-[4-(trifluoromethyl)phenyl]naphthalene-2-carboxamide] | < 100
C[C@@H](NC(=O)c1ccc2c(-c3ccc(C(F)(F)F)cc3)cccc2c1)c1cccc2cn[nH]c12 [Compound 182, N-[(1R)-1-(1H-indazol-7-yl)ethyl]-5-[4-(trifluoromethyl)phenyl]naphthalene-2-carboxamide] | < 100
C[C@H](NC(=O)c1ccc2c(-c3ccc(C(F)(F)F)cc3)cccc2c1)c1cccc2cn[nH]c12 [Compound 183, N-[(1S)-1-(1H-indazol-7-yl)ethyl]-5-[4-(trifluoromethyl)phenyl]naphthalene-2-carboxamide] | 1000 to 3000
NC(=O)c1nc(CNC(=O)c2ccc3c(-c4ccc(C(F)(F)F)cc4)cccc3c2)ns1 [Compound 184, 3-((5-(4-(Trifluoromethyl)phenyl)-2-naphthamido)methyl)-1,2,4-thiadiazole-5-carboxamide] | < 100
O=C(NCc1ccncn1)c1ccc2c(-c3ccc(C(F)(F)F)cc3)cccc2c1 [Compound 185, N-(pyrimidin-4-ylmethyl)-5-(4-(trifluoromethyl)phenyl)-2-naphthamide] | < 100
N#Cc1cc(CNC(=O)c2ccc3c(-c4ccc(C(F)(F)F)cc4)cccc3c2)ccn1 [Compound 186, N-((2-cyanopyridin-4-yl)methyl)-5-(4-(trifluoromethyl)phenyl)-2-naphthamide] | < 100
O=C(NCc1cccc(COc2c(F)cccc2F)n1)c1ccc2c(-c3ccc(C(F)(F)F)cc3)cccc2c1 [Compound 187, N-((6-((2,6-difluorophenoxy)methyl)pyridin-2-yl)methyl)-5-(4-(trifluoromethyl)phenyl)-2-naphthamide] | 100 to 1000
O=C(NC(CCO)c1ccccn1)c1ccc2c(-c3ccc(C(F)(F)F)cc3)cccc2c1 (stereo not shown) [Compound 188, N-[3-hydroxy-1-(2-pyridyl)propyl]-5-[4-(trifluoromethyl)phenyl]naphthalene-2-carboxamide] | < 100
O=C(NCc1cccc(F)n1)c1ccc2c(-c3ccc(C(F)(F)F)cc3)cccc2c1 [Compound 190, N-((6-fluoropyridin-2-yl)methyl)-5-(4-(trifluoromethyl)phenyl)-2-naphthamide] | 100 to 1000
N#Cc1cccc(CNC(=O)c2ccc3c(-c4ccc(C(F)(F)F)cc4)cccc3c2)n1 [Compound 191, N-((6-cyanopyridin-2-yl)methyl)-5-(4-(trifluoromethyl)phenyl)-2-naphthamide] | 100 to 1000
O=C(NCc1cccc(COc2ccon2)c1)c1ccc2c(-c3ccc(C(F)(F)F)cc3)cccc2c1 [Compound 192, N-(3-((isoxazol-3-yloxy)methyl)benzyl)-5-(4-(trifluoromethyl)phenyl)-2-naphthamide] | 100 to 1000
O=C(NCc1ncsn1)c1ccc2c(-c3ccc(C(F)(F)F)cc3)cccc2c1 [Compound 193, N-((1,2,4-thiadiazol-3-yl)methyl)-5-(4-(trifluoromethyl)phenyl)-2-naphthamide] | < 100
C[C@H](NC(=O)c1ccc2c(-c3ccc(C(F)(F)F)cc3)cccc2c1)c1cn(C)cn1 [Compound 195, (S)—N-(1-(1-methyl-1H-imidazol-4-yl)ethyl)-5-(4-(trifluoromethyl)phenyl)-2-naphthamide] | < 100
C[C@@H](NC(=O)c1ccc2c(-c3ccc(C(F)(F)F)cc3)cccc2c1)c1cn(C)cn1 [Compound 196, (R)—N-(1-(1-methyl-1H-imidazol-4-yl)ethyl)-5-(4-(trifluoromethyl)phenyl)-2-naphthamide] | 100 to 1000
O=C(NC(CO)Cc1ccccn1)c1ccc2c(-c3ccc(C(F)(F)F)cc3)cccc2c1 (stereo not shown) [Compound 197, N-(1-hydroxy-3-(pyridin-2-yl)propan-2-yl)-5-(4-(trifluoromethyl)phenyl)-2-naphthamide] | 100 to 1000
O=C(NCCC/C=C/COc1ccon1)c1ccc2c(-c3ccc(C(F)(F)F)cc3)cccc2c1 [Compound 198, N-[(E)-6-isoxazol-3-yloxyhex-4-enyl]-5-[4-(trifluoromethyl)phenyl]naphthalene-2-carboxamide] | < 100
